For 11 molecules, Ki results are on record in patent US10329260B2, “Human plasma kallikrein inhibitors” (BioCryst Pharmaceuticals, Inc., priority 2014, dated 2019).

Some results are limits rather than exact numbers.

In this experiment the target is human plasma kallikrein (Homo sapiens (Human), UniProt P03952). Description: Plasma Kallikrein Activity Assay. The experiment is classed as biochemical. Conditions: 2 nM kallikrein, 80 μM chromogenic substrate S2302, 30° C., pH 7.8; Ki by Cheng-Prusoff equation.
human plasma kallikrein, sequence (P03952 whole entry partner, looked up): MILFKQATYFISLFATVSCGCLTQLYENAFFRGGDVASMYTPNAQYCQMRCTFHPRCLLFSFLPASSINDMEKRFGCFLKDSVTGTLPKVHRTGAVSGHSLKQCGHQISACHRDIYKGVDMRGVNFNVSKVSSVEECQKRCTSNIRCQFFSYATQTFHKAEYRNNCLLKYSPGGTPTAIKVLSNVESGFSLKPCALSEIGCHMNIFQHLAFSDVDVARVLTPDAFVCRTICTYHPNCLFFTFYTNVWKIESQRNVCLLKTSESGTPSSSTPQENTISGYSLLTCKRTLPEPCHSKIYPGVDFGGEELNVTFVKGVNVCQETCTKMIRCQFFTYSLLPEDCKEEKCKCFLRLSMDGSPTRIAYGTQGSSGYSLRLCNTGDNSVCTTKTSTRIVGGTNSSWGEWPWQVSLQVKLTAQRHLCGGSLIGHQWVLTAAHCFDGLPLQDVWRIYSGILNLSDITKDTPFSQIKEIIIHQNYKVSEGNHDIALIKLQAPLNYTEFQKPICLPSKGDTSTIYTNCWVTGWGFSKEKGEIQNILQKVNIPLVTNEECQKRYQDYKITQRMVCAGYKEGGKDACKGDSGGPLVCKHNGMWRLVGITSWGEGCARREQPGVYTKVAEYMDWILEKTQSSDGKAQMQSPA
human plasma kallikrein, sequence (P03952 whole entry, looked up): as the sequence (P03952 whole entry partner, looked up) above
Description: The effect of compounds of the invention on human plasma kallikrein activity was determined using the chromogenic substrates (DiaPharma Group, Inc., West Chester, Ohio, USA). In these experiments, 2 nM kallikrein (Enzyme Research Laboratories, South Bend, Ind., USA) was incubated with 80 μM S2302 (H-D-Pro-Phe-Arg-p-nitroaniline) in the absence or presence of increasing concentrations of compounds of the invention in a final volume of 200 μL Tris-HCl buffer (200 mM NaCl; 2.5 mM CaCl2; 50 mM Tris-HCl, pH 7.8).
Data were analyzed using SigmaPlot software (Systat Software, Inc., San Jose, Calif., USA) (Four Parameter Logistic Curve).
Usually Ki stands for the dissociation constant of the complex between target and ligand, obtained from inhibition or displacement. A low value points to higher affinity. With `NCc1cccc(-n2nc(C(F)(F)F)cc2C(=O)Nc2cccc(C(NCCCn3ccnc3)c3ccccc3)c2)c1` (centres unmarked) [Compound 183b, N-(3-(((3-(1H-Imidazol-1-yl)propyl)amino)(phenyl)methyl)phenyl)-1-(3-(aminomethyl)phenyl)-3-(trifluoromethyl)-1H-pyrazole-5-carboxamide], the Ki is above 100 nM. To `CN(C)C(c1ccccc1)c1cccc(NC(=O)c2cc(C(F)(F)F)nn2-c2cccc(CN)c2)c1` (centres unmarked) [Compound 184b, 1-(3-(Aminomethyl)phenyl)-N-(3-((dimethylamino)(phenyl)methyl)phenyl)-3-(trifluoromethyl)-1H-pyrazole-5-carboxamide] belongs above 100 nM; to `NCc1cccc(-n2nc(C(F)(F)F)cc2C(=O)Nc2cccc(C(NC3CCCCC3)c3ccccc3)c2)c1` (centres unmarked) [Compound 185b, 1-(3-(Aminomethyl)phenyl)-N-(3-((cyclohexylamino)(phenyl)methyl)phenyl)-3-(trifluoromethyl)-1H-pyrazole-5-carboxamide], above 100 nM; to `NCc1cccc(-n2nc(C(F)(F)F)cc2C(=O)Nc2cccc(C(NCc3ccncc3)c3ccccc3)c2)c1` (centres unmarked) [Compound 186b, 1-(3-(Aminomethyl)phenyl)-N-(3-(phenyl((pyridin-4-ylmethyl)amino)methyl)phenyl)-3-(trifluoromethyl)-1H-pyrazole-5-carboxamide], above 100 nM. The value for `CC(C)(C)CNC(c1ccccc1)c1cccc(NC(=O)c2cc(C(F)(F)F)nn2-c2cccc(CN)c2)c1` (centres unmarked) [Compound 187b, 1-(3-(Aminomethyl)phenyl)-N-(3-((neopentylamino)(phenyl)methyl)phenyl)-3-(trifluoromethyl)-1H-pyrazole-5-carboxamide] was above 100 nM. The value for `NCc1cccc(-n2nc(C(F)(F)F)cc2C(=O)Nc2cccc(C(NCc3ccc(N)cc3)c3ccccc3)c2)c1` (centres unmarked) [Compound 189b, N-(3-(((4-Aminobenzyl)amino)(phenyl)methyl)phenyl)-1-(3-(aminomethyl)phenyl)-3-(trifluoromethyl)-1H-pyrazole-5-carboxamide] was above 100 nM.

For the molecule `CSCCNC(c1ccccc1)c1cccc(NC(=O)c2cc(C(F)(F)F)nn2-c2cccc(CN)c2)c1` (centres unmarked) [Compound 190b, 1-(3-(aminomethyl)phenyl)-N-(3-(((2-(methylthio)ethyl)amino)(phenyl)methyl)phenyl)-3-(trifluoromethyl)-1H-pyrazole-5-carboxamide], the Ki is above 100 nM.

For the molecule `NCc1cccc(-n2nc(C(F)(F)F)cc2C(=O)Nc2cccc(C(NCCCO)c3ccccc3)c2)c1` (centres unmarked) [Compound 191b, 1-(3-(Aminomethyl)phenyl)-N-(3-(((3-hydroxypropyl)amino)(phenyl)methyl)phenyl)-3-(trifluoromethyl)-1H-pyrazole-5-carboxamide], the Ki is above 100 nM. To `NCc1cccc(-n2nc(C(F)(F)F)cc2C(=O)Nc2cccc(C(NCC3CC3)c3ccccc3Cl)c2)c1` (centres unmarked) [Compound 194f, 1-(3-(aminomethyl)phenyl)-N-(3-((2-chlorophenyl)((cyclopropylmethyl)amino)methyl)phenyl)-3-(trifluoromethyl)-1H-pyrazole-5-carboxamide] belongs 0.1 to 50 nM; to `CC(C)(C)c1ccc(C(NCC2CC2)c2cccc(NC(=O)c3cc(C(F)(F)F)nn3-c3cccc(CN)c3)c2)cc1` (centres unmarked) [Compound 203f, 1-(3-(aminomethyl)phenyl)-N-(3-((4-(tert-butyl)phenyl)((cyclopropylmethyl)amino)methyl)phenyl)-3-(trifluoromethyl)-1H-pyrazole-5-carboxamide], above 100 nM; to `Nc1n[nH]c2ccc(-n3nc(C(F)(F)F)cc3C(=O)Nc3cc(C(NCC4CC4)c4ccccc4)ccc3F)cc12` (centres unmarked) [Compound 224b, 1-(3-amino-1H-indazol-5-yl)-N-(5-((cyclopropylmethylamino)(phenyl)methyl)-2-fluorophenyl)-3-(trifluoromethyl)-1H-pyrazole-5-carboxamide], above 100 nM.
